The test system of the assay is Human Umbilical Vein Endothelial cells (VEGF-stimulated). In words: HUVEC proliferation assay, VEGF-stimulated. The class given is cell-based. Particulars: VEGF 50 ng/mL, 72 h, CyQuant, read-out: inhibited VEGF-stimulated HUVEC proliferation at a level. The method in brief:
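Pooled-donor HUVECs (passage 2–3) seeded in DMEM+10% FBS for 22 h, then pre-treated 2–3 h with five-point, five-fold compound dilutions (0.25% DMSO final). Stimulated with 50 ng/mL VEGF (bFGF 20 ng/mL on separate plates) for 72 h at 37 °C. CyQuant fluorescence (485/530 nm) after freeze-thaw; IC50 from 4-parameter fit.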
Take `CN1CCC(C(C)(C)c2ccc(NC(=O)c3cccnc3NCc3ccnc4ccccc34)cc2)CC1` [Example 1028, N-(4-(1-Methyl-1-(1-methyl-4-piperidinyl)ethyl)phenyl)-2-((4-quinolinylmethyl)amino)-3-pyridinecarboxamide]: the IC50 is under 50 nM.

Consider `CNc1nccc(CNc2ncccc2C(=O)Nc2cc(OC[C@H]3CCCN3C)cc(C(F)(F)F)c2)n1` [Example 1044, 2-(((2-(methylamino)-4-pyrimidinyl)methyl)amino)-N-(3-((((2R)-1-methyl-2-pyrrolidinyl)methyl)oxy)-5-(trifluoromethyl)phenyl)-3-pyridinecarboxamide], for which the IC50 was under 50 nM. The same measure for `CC1(C)CCNc2cc(NC(=O)c3cccnc3NCc3ccncn3)ccc21` [Example 1110, N-(4,4-Dimethyl-1,2,3,4-tetrahydro-quinolin-7-yl)-2-[(pyrimidin-4-ylmethyl)-amino]-nicotinamide]: under 50 nM; for `O=C(Nc1ccc(Cl)cc1)c1cccnc1NCc1ccc2ncccc2c1` [Example 21, N-(4-Chlorophenyl){2-[(6-quinolylmethyl)amino](3-pyridyl)}carboxamide]: under 50 nM; for `CN1CCC(COc2cc(NC(=O)c3cccnc3NCc3ccncc3)ccc2C(F)(F)C(F)(F)F)CC1` [Example 954, N-[3-(1-Methyl-piperidin-4-ylmethoxy)-4-pentafluoroethyl-phenyl]-2-[(pyridin-4-ylmethyl)-amino]-nicotinamide]: under 50 nM. On to `CNc1cc(CNc2ncccc2C(=O)Nc2cc(Cl)cc(NC(=O)CN(C)C)c2)ccn1` [Example 1149, N-[3-Chloro-5-(2-dimethylamino-acetylamino)-phenyl]-2-[(2-methylamino-pyridin-4-ylmethyl)-amino]-nicotinamide], for which the IC50 is under 50 nM. For `CCN1CCC(C)(C)c2ccc(NC(=O)c3cccnc3NCc3ccnc(N)c3)cc21` [Example 1125, 2-[(2-Amino-pyridin-4-ylmethyl)-amino]-N-(1-ethyl-4,4-dimethyl-1,2,3,4-tetrahydro-quinolin-7-yl)-nicotinamide], the IC50 was under 50 nM. Turning to `CC(C)c1ccc(NC(=O)c2ccc(F)nc2NCc2ccncc2)cc1` [Example 155, {6-Fluoro-2-[(4-pyridylmethyl)amino](3-pyridyl)}-N-[4-(isopropyl)phenyl]carboxamide], the IC50 was under 50 nM. The same measure for `CNc1nccc(CNc2ncccc2C(=O)Nc2cc(OCCNS(C)(=O)=O)cc(C(F)(F)F)c2)n1` [Example 1091, 2-(((2-(methylamino)-4-pyrimidinyl)methyl)amino)-N-(3-((2-((methylsulfonyl)amino)ethyl)oxy)-5-(trifluoromethyl)phenyl)-3-pyridinecarboxamide]: under 50 nM; for `O=C(Nc1ccc(Cl)c(Cl)c1)c1cccnc1NCc1ccncc1` [Example 4, N-(3,4-Dichlorophenyl){2-[(4-pyridylmethyl)amino](3-pyridyl)}-carboxamide]: under 50 nM; for `CC1(C)CN(Cc2cc[n+]([O-])cc2)c2cc(NC(=O)c3cccnc3NCc3ccncc3)ccc21` [Example 1099, N-[3,3-Dimethyl-1-(1-oxy-pyridin-4-ylmethyl)-2,3-dihydro-1H-indol-6-yl]-2-[(pyridin-4-ylmethyl)-amino]-nicotinamide]: under 50 nM. For `CC1(C)CCNc2cc(NC(=O)c3cccnc3NCc3ccnc(N)c3)ccc21` [Example 1111, 2-[(2-Amino-pyridin-4-ylmethyl)-amino]-N-(4,4-dimethyl-1,2,3,4-tetrahydro-quinolin-7-yl)-nicotinamide] the value was under 50 nM; for `CN1CCC(CCCOc2cc(CNc3ncccc3C(=O)Nc3ccc(C(C)(C)C)cc3)ccn2)CC1` [Example 924, 2-({2-[3-(1-Methyl-piperidin-4-yl)-propoxy]-pyridin-4-ylmethyl}-amino)-N-(4-tert-butyl-phenyl)-nicotinamide], under 50 nM. On to `CC(C)(C)OC(=O)N1CCC[C@@H]1COc1cc(NC(=O)c2cccnc2NCc2ccncc2)cc(C(F)(F)F)c1` [Example 916, (R) N-[3-(1-Boc-pyrrolidin-2-ylmethoxy)-5-trifluoromethyl-phenyl]-2-[(pyridin-4-ylmethyl)-amino]-nicotinamide], for which the IC50 was under 50 nM. As to `CNc1nccc(CNc2ncccc2C(=O)Nc2ccc3c(c2)N(S(C)(=O)=O)CC3(C)C)n1` [Example 1060, N-(3,3-dimethyl-1-(methylsulfonyl)-2,3-dihydro-1H-indol-6-yl)-2-(((2-(methylamino)-4-pyrimidinyl)methyl)amino)-3-pyridinecarboxamide], the IC50 was under 50 nM.

`CN1CC(C)(C)c2ccc(NC(=O)c3cccnc3NCc3ccncc3)cc21` [Example 1184, 2-[(Pyridin-4-ylmethyl)-amino]-N-(1,3,3-trimethyl-2,3-dihydro-1H-indol-6-yl)-nicotinamide]: the IC50 was under 50 nM. In the case of `CC(C)c1ccc(NC(=O)c2cc(F)cnc2NCc2ccncc2)cc1` [Example 67, {5-Fluoro-2-[(4-pyridylmethyl)amino](3-pyridyl)}-N-[4-(isopropyl)phenyl]carboxamide], the IC50 is under 50 nM. Take `O=C(Nc1ccc(Cl)cc1)c1cccnc1NCc1ccnc2ccccc12` [Example 20, N-(4-Chlorophenyl){2-[(4-quinolylmethyl)amino](3-pyridyl)}carboxamide]: the IC50 is under 50 nM. As for `CNc1nccc(CNc2ncccc2C(=O)Nc2ccc3c(c2)NCC3(C)C)n1` [Example 1040, N-(3,3-Dimethyl-2,3-dihydro-1H-indol-6-yl)-2-(((2-(methylamino)-4-pyrimidinyl)methyl)amino)-3-pyridinecarboxamide], the IC50 was under 50 nM.

Take `CS(=O)(=O)Nc1cc(NC(=O)c2cccnc2NCc2ccncc2)cc(C(F)(F)F)c1` [Example 1095, N-(3-((methylsulfonyl)amino)-5-(trifluoromethyl)phenyl)-2-((4-pyridinylmethyl)amino)-3-pyridinecarboxamide]: the IC50 is under 50 nM. The same measure for `CC1(C)CC(=O)Nc2cc(NC(=O)c3cccnc3NCc3ccncc3)ccc21` [Example 1114, N-(4,4-Dimethyl-2-oxo-1,2,3,4-tetrahydro-quinolin-7-yl)-2-[(pyridin-4-ylmethyl)-amino]-nicotinamide]: under 50 nM; for `CNc1cc(CNc2ncccc2C(=O)Nc2ccc3c(c2)NCC3(C)C)ccn1` [Example 1104, N-(3,3-Dimethyl-2,3-dihydro-1H-indol-6-yl)-2-[(2-methylamino-pyridin-4-ylmethyl)-amino]-nicotinamide]: under 50 nM; for `CN1CCC[C@H]1COc1cc(NC(=O)c2cccnc2NCc2ccncn2)cc(C(F)(F)F)c1` [Example 1025, N-(3-((((2S)-1-Methyl-2-pyrrolidinyl)methyl)oxy)-5-(trifluoromethyl)phenyl)-2-((4-pyrimidinylmethyl)amino)-3-pyridinecarboxamide]: under 50 nM.

For `CC1(C)CN(C[C@@H]2CCCN2)c2cc(NC(=O)c3cccnc3NCc3ccncc3)ccc21` [Example 1176, N-(3,3-Dimethyl-1-pyrrolidin-(2S)-ylmethyl-2,3-dihydro-1H-indol-6-yl)-2-[(pyridin-4-ylmethyl)-amino]-nicotinamide], the IC50 was under 50 nM.

For the compound `CC1(C)CCNc2cc(NC(=O)c3cccnc3NCc3ccncc3)ccc21` [Example 1109, N-(4,4-Dimethyl-1,2,3,4-tetrahydro-quinolin-7-yl)-2-[(pyridin-4-ylmethyl)-amino]-nicotinamide], the IC50 is under 50 nM.

Values taken from patent US7687643B2, “Process for preparing 3,3-dimethylindolines” (Amgen Inc., priority 2001, dated 2010).
